Measured values as given in patent US8772277B2, “Nitrogen-containing heterocyclic compound” (Takeda Pharmaceutical Company Limited, priority 2011, dated 2014).
Counter-ions that a name gives are not always drawn.

Assays:
[1] = target: T1, GST-ERR-α ligand-binding domain (Homo sapiens, UniProt P11474); test: HTRF assay system using ERR-α ligand-binding domain (inverse agonist activity, biotinylated SRC-1 (676-700) peptide); assay type: biochemical; conditions: compound final concentration 30 μM, 665/620 ratio, no compound = 0%, 10 μM XCT-790 = 100%; for inhibition at 30 µM: read-out: inhibition rate (%) at 30 μM
T1 sequence (P11474 193-421 limits assumed): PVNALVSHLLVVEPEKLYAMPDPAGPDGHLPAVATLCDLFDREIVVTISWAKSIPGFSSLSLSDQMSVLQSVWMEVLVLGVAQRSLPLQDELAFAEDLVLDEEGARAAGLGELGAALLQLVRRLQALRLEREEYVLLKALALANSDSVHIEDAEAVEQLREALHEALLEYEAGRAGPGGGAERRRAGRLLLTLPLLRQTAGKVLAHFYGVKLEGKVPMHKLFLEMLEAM
Method: Experimental Example 1 Compound Evaluation in HTRF Assay System Using ERR-α Ligand-Binding Domain
An assay buffer (25 mM HEPES, 100 mM NaCl, 1 mM DTT, 0.1% BSA) containing 5 nM GST-ERR-α ligand-binding domain (final concentration 1.25 nM) was added to a 384 well plate, then 40 μM N-[5-(trifluoromethyl)-1,3,4-thiadiazol-2-yl]-2-cyano-3-[3-methoxy-4-[2,4-di(trifluoromethyl)benzyloxy]phenyl]propenamide (XCT-790) (final concentration 10 μM), or 120 μM compound (final concentration 30 μM) was added. Furthermore, an assay buffer containing XL665 conjugated Streptavidin, Eu^3+ criptate conjugated GST antibody and 200 nM biotinylated SRC-1 (676-700) (final concentration 100 nM) was added, and the mixture was reacted at room temperature for 2 hr. Using Multiplate reader Envision (Perkin Elmer Inc.), after excitation at 320 nm, fluorescence values at 620 nm and 665 nm were measured. The inverse agonist activity of the compound was calculated in percentage with the 665/620 ratio value inhibited by no addition of compound as 0%, and with addition of final concentration 10 μM of XCT-790 as 100%.

[2] = target: T2, fusion protein containing GAL4-DNA-binding domain and ERR full-length (Homo sapiens, UniProt P11474); test: Reporter assay system using 293T cells (GAL4-ERR luciferase, inverse agonist activity); assay type: cell-based; conditions: compound final concentration 3 μM, no compound = 0%, 10 μM XCT-790 = 100%; for inhibition at 3 µM: HEK-293T, read-out: inhibition rate (%) at 3 μM
T2 construct: expressed in transfected cells; host or cells: 293T cells
T2 sequence (P11474 1-423): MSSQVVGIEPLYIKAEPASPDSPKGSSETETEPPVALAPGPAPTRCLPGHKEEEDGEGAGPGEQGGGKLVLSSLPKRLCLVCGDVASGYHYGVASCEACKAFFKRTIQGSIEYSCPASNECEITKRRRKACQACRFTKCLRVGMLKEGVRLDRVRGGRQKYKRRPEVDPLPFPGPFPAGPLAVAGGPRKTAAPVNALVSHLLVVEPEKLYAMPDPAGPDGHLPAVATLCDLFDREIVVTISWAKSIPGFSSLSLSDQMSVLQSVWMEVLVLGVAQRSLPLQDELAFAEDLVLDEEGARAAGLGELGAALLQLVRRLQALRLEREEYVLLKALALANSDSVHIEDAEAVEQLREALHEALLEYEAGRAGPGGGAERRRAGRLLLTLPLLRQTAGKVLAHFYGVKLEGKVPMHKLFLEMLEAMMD
Method: Experimental Example 2 Compound Evaluation in Reporter Assay System Using 293T Cells
293T cells derived from human kidney were seeded in a 150 cm^2 flask by 6,000,000 cells, and cultured in a medium (DMEM medium containing 10% inactivated Fetal Bovine Serum sterile filtered (FBS), […] Gentamicin, 10 mM HEPES buffer (pH 7.4)) at 37° C. in the presence of 5% CO2 for 1 day.
Then, vector DNA having a gene encoding a fusion protein, containing GAL4-DNA-binding domain and ERR full-length and a vector DNA wherein luciferase gene is fused at the downstream of GAL4-binding-sequence were cotransfected by a lipofection method, and the cells were cultured at 37° C. in the presence of 5% CO2 for 1 day. The cells were recovered, sown in a 384 well plate by 15,000 cells, and cultured at 37° C. in the presence of 5% CO2 for 3 hrs. Furthermore, 50 μM N-[5-(trifluoromethyl)-1,3,4-thiadiazol-2-yl]-2-cyano-3-[3-methoxy-4-[2,4-di(trifluoromethyl)benzyloxy]phenyl]propenamide (XCT-790) (final concentration 10 μM) or 15 μM compound (final concentration 3 μM) was added, and the cells were cultured at 37° C. in the presence of 5% CO2 for 1 day. The luciferase activity was measured by using multiplate reader Envision (Perkin Elmer Inc.). The inverse agonist activity of the compound was calculated in percentage with the luciferase activity inhibited by no addition of compound as 0%, and with addition of final concentration 10 μM of XCT-790 as 100%.

MDA-MB-231-luc cells = test: Antitumor test using MDA-MB-231-luc cells (subcutaneous transplant); assay type: in vivo, Balb/c nu/nu mice; conditions: change in tumor volume, vehicle group = 100%
Method: Experimental Example 3 Antitumor Test using MDA-MB-231-luc Cells
6-Week-old Balb/c nu/nu mice were transplanted subcutaneously with 5×10^6 cells/100 μL, and the mice were grouped according to the body weight and tumor volume after 1 to 2 weeks. Vehicle (0.5% MC) or a compound was administered orally to mice (6 mice per group). The administration was twice per day and performed continuously during the dosing period. Setting the change in tumor volume of the vehicle-treated group as 100%, the change rate in tumor volume of the compound-treated group (□/C %) was calculated.

[3] = 50 mg/kg orally twice per day, dosing period 14 days

Row | inhibition at 30 µM [1] | inhibition at 3 µM [2] | SMILES | further results
1 | 99% | 90% | CN(C)C(=O)[C@@H](CO)NC1=NC(=O)S/C1=C\C1CCN(Cc2ccc(C(F)(F)F)cc2C(F)(F)F)CC1 [Example 115, N^2-[(5Z)-5-({1-[2,4-bis(trifluoromethyl)benzyl]piperidin-4-yl}methylidene)-2-oxo-2,5-dihydro-1,3-thiazol-4-yl]-N,N-dimethyl-D-serinamide] | T/C (%) (MDA-MB-231-luc cells; [3]): 55%
2 |  |  | O=C1N=C(NCCOCCO)/C(=C/C2CCN(Cc3ccc(C(F)(F)F)cc3C(F)(F)F)CC2)S1 [Example 195, (5Z)-5-({1-[2,4-bis(trifluoromethyl)benzyl]piperidin-4-yl}methylidene)-4-{[2-(2-hydroxyethoxy)ethyl]amino}-1,3-thiazol-2(5H)-one hydrochloride] | inhibition rate (%) at 30 μM ([1]; hydrochloride): 102%; inhibition rate (%) at 3 μM ([2]; hydrochloride): 90%; T/C (%) (MDA-MB-231-luc cells; 50 mg/kg orally twice per day, dosing period 17 days): 56%
3 |  |  | C#CCNC1=NC(=O)S/C1=C\C1CCN(Cc2ccc(C(F)(F)F)cc2C(F)(F)F)CC1 [Example 7, (5Z)-5-({1-[2,4-bis(trifluoromethyl)benzyl]piperidin-4-yl}methylidene)-4-(prop-2-yn-1-ylamino)-1,3-thiazol-2(5H)-one] | inhibition rate (%) at 30 μM [1]: 100%; inhibition rate (%) at 3 μM [2]: 87%; T/C (%) (MDA-MB-231-luc cells; [3]): 24%
4 |  |  | CC(C)(CO)CNC1=NC(=O)S/C1=C\C1CCN(Cc2ccc(C(F)(F)F)cc2C(F)(F)F)CC1 [Example 78, (5Z)-5-({1-[2,4-bis(trifluoromethyl)benzyl]piperidin-4-yl}methylidene)-4-[(3-hydroxy-2,2-dimethylpropyl)amino]-1,3-thiazol-2(5H)-one fumarate] | T/C (%) (MDA-MB-231-luc cells; [3]): 11%
5 | 89% | 81% | CN(C)C(=O)CNC1=NC(=O)S/C1=C\C1CCN(Cc2ccc(C(F)(F)F)cc2C(F)(F)F)CC1 [Example 108, N^2-[(5Z)-5-({1-[2,4-bis(trifluoromethyl)benzyl]piperidin-4-yl}methylidene)-2-oxo-2,5-dihydro-1,3-thiazol-4-yl]-N,N-dimethylglycinamide] | T/C (%) (MDA-MB-231-luc cells; [3]): 45%
6 | 106% | 97% | CC(C)(O)CNC1=NC(=O)S/C1=C\C1CCN(Cc2ccc(C(F)(F)F)cc2C(F)(F)F)CC1 [Example 17, (5Z)-5-({1-[2,4-bis(trifluoromethyl)benzyl]piperidin-4-yl}methylidene)-4-[(2-hydroxy-2-methylpropyl)amino]-1,3-thiazol-2(5H)-one fumarate] | T/C (%) (MDA-MB-231-luc cells; 50 mg/kg orally twice per day, dosing period 15 days): 40%
7 | 105% | 95% | O=C1N=C(NC2COC2)/C(=C/C2CCN(Cc3ccc(C(F)(F)F)cc3C(F)(F)F)CC2)S1 [Example 20, (5Z)-5-({1-[2,4-bis(trifluoromethyl)benzyl]piperidin-4-yl}methylidene)-4-(oxetan-3-ylamino)-1,3-thiazol-2(5H)-one] | 
8 |  |  | C#CCNC1=NC(=O)S/C1=C\C1CCN(Cc2ccc(C(F)(F)F)cc2C(F)(F)F)CC1 [Example 10, (5Z)-5-({1-[2,4-bis(trifluoromethyl)benzyl]piperidin-4-yl}methylidene)-4-(prop-2-yn-1-ylamino)-1,3-thiazol-2(5H)-one fumarate] | inhibition rate (%) at 30 μM ([1]; fumarate): 102%; inhibition rate (%) at 3 μM ([2]; fumarate): 93%; T/C (%) (MDA-MB-231-luc cells; 60 mg/kg orally twice per day, dosing period 15 days): 15%
9 | 73% | 62% | C#CCNC1=NC(=O)S/C1=C\C1CCN(Cc2ccc(C#N)cc2C(F)(F)F)CC1 [Example 40, 4-[(4-{(Z)-[2-oxo-4-(prop-2-yn-1-ylamino)-1,3-thiazol-5(2H)-ylidene]methyl}piperidin-1-yl)methyl]-3-(trifluoromethyl)benzonitrile] | 
10 | 112% | 89% | C#CCNC1=NC(=O)S/C1=C\C1CCN(Cc2ccc(C(F)(F)F)cc2C(F)(F)F)CC1 [Example 16, (5Z)-5-({1-[2,4-bis(trifluoromethyl)benzyl]piperidin-4-yl}methylidene)-4-(prop-2-yn-1-ylamino)-1,3-thiazol-2(5H)-one hydrochloride] | 
11 | 107% | 88% | CCN(CC)CCNC1=NC(=O)S/C1=C\C1CCN(Cc2ccc(C(F)(F)F)cc2C(F)(F)F)CC1 [Example 9, (5Z)-5-({1-[2,4-bis(trifluoromethyl)benzyl]piperidin-4-yl}methylidene)-4-{[2-(diethylamino)ethyl]amino}-1,3-thiazol-2(5H)-one dihydrochloride] | 
12 | 49% | 67% | C#CCNC1=NC(=O)S/C1=C\C1CCN(Cc2ccc(C(F)(F)F)cc2Cl)CC1 [Example 59, (5Z)-5-({1-[2-chloro-4-(trifluoromethyl)benzyl]piperidin-4-yl}methylidene)-4-(prop-2-yn-1-ylamino)-1,3-thiazol-2(5H)-one fumarate] | 
13 | 100% | 90% | CN(C)C(=O)CCNC1=NC(=O)S/C1=C\C1CCN(Cc2ccc(C(F)(F)F)cc2C(F)(F)F)CC1 [Example 140, N^3-[(5Z)-5-({1-[2,4-bis(trifluoromethyl)benzyl]piperidin-4-yl}methylidene)-2-oxo-2,5-dihydro-1,3-thiazol-4-yl]-N,N-dimethyl-β-alaninamide] | 

Row | SMILES | inhibition at 30 µM [1] | inhibition at 3 µM [2] | further results
14 | CNC1=NC(=O)S/C1=C\[C@@H]1C[C@H]2CC[C@@H](C1)N2Cc1ccc(C(F)(F)F)cc1C(F)(F)F [Example 15, (5Z)-5-({(3-exo)-8-[2,4-bis(trifluoromethyl)benzyl]-8-azabicyclo[3.2.1]oct-3-yl}methylidene)-4-(methylamino)-1,3-thiazol-2(5H)-one] | 102% | 88% | 
